{"source": "ChEMBL document CHEMBL4507270", "about": "(2021)", "key": {"[1]": {"target": "Ephrin type-B receptor 2 (Homo sapiens) (UniProt P29323)", "sequence (P29323 whole entry)": "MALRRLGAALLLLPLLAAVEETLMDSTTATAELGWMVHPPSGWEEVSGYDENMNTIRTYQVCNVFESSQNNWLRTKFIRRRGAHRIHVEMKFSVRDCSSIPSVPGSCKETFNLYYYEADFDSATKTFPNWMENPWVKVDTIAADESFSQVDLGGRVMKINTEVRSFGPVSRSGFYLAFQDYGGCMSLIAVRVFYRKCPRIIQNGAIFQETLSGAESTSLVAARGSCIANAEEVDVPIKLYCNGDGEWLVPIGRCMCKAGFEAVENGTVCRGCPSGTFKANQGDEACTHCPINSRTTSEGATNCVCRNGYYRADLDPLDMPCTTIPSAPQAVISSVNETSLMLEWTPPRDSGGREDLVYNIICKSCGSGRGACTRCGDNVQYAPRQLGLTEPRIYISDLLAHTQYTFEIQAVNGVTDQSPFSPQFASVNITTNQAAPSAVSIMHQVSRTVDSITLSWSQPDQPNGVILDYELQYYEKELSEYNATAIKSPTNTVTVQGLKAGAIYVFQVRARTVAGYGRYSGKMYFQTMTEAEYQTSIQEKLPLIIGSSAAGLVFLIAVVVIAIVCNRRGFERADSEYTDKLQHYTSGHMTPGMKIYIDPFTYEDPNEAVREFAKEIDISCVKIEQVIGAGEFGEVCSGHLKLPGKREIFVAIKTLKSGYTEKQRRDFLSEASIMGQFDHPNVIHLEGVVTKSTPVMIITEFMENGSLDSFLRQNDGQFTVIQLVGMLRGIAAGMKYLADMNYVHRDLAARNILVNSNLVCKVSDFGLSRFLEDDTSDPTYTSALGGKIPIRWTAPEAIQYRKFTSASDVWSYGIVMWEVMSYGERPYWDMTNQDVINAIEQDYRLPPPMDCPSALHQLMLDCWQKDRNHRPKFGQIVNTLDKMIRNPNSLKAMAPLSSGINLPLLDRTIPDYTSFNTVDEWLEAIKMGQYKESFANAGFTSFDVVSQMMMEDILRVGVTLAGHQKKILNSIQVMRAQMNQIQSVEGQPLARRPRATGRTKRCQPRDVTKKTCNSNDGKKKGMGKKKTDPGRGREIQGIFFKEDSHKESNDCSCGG"}, "[2]": {"target": "Serine/threonine-protein kinase TBK1 (Homo sapiens) (UniProt Q9UHD2)"}, "[3]": {"target": "Ephrin type-A receptor 7 (Homo sapiens) (UniProt Q15375)", "sequence (Q15375 28-998 limits assumed)": "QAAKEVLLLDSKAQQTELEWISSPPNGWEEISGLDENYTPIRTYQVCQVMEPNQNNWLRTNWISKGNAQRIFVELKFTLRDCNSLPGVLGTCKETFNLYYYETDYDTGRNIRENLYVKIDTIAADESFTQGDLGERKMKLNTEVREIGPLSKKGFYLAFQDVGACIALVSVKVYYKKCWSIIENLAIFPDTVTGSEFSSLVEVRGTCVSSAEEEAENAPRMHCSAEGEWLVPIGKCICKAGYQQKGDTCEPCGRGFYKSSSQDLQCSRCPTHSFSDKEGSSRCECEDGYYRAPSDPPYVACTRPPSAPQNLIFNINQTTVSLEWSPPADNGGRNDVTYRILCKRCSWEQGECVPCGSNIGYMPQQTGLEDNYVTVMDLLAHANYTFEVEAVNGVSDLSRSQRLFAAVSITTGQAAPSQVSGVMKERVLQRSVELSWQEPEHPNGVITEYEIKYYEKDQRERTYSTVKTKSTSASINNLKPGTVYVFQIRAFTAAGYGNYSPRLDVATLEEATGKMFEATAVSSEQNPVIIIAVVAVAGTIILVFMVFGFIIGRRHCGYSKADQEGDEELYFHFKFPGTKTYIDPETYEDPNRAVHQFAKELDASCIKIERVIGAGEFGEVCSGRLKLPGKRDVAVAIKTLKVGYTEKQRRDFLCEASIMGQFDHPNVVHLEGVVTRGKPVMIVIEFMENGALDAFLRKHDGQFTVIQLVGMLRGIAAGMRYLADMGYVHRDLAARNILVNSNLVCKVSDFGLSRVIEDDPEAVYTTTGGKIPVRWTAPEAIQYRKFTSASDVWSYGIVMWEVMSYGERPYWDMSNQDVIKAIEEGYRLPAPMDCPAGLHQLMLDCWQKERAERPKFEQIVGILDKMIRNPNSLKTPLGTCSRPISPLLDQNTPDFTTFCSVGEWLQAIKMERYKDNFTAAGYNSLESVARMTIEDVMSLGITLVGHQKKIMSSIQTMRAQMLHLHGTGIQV"}, "[4]": {"target": "Mitogen-activated protein kinase kinase kinase kinase 1 (Homo sapiens) (UniProt Q92918)", "sequence (Q92918 whole entry, looked up)": "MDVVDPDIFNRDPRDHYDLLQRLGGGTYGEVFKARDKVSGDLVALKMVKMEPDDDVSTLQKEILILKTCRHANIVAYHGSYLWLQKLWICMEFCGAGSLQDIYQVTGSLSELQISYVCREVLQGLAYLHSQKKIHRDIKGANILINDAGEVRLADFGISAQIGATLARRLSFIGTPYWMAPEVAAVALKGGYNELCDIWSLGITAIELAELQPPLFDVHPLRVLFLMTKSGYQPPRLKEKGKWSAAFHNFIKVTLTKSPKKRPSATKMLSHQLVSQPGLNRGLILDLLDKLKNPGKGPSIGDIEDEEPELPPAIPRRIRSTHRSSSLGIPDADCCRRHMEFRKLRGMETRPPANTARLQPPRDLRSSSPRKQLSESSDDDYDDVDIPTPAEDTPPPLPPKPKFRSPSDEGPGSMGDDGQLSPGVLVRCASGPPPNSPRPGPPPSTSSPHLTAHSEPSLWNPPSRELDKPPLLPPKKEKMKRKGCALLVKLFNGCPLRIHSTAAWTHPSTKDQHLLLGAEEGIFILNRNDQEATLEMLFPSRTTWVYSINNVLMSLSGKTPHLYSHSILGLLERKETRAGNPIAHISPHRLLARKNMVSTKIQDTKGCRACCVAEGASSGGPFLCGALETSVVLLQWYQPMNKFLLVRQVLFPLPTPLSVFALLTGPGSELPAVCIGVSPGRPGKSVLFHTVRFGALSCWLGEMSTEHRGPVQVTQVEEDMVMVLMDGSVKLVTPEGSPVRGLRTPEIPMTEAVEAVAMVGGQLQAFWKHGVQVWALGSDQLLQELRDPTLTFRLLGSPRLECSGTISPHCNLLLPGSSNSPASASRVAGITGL"}, "[5]": {"target": "Tyrosine-protein kinase BTK (Homo sapiens) (UniProt Q06187)", "sequence (Q06187 whole entry)": "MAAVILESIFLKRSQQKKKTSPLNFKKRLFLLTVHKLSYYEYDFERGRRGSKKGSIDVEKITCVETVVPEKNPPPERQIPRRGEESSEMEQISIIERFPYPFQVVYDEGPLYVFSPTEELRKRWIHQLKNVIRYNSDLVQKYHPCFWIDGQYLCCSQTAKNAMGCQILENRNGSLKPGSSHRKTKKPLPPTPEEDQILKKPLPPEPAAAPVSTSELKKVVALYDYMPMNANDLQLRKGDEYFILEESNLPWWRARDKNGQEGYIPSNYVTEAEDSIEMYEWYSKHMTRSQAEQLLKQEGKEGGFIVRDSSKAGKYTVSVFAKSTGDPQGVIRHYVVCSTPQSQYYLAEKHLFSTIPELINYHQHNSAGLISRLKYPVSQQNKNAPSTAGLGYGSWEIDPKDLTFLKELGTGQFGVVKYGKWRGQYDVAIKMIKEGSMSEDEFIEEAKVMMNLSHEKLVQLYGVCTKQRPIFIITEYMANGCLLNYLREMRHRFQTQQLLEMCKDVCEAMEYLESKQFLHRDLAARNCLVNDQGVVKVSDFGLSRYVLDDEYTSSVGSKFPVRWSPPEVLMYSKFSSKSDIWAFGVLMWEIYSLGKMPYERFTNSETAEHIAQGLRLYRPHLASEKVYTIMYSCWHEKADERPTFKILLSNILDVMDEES"}, "[6]": {"test_system": "Leucine-rich repeat serine/threonine-protein kinase 2 (Homo sapiens), Q5S007 [G2019S]"}, "[7]": {"target": "Myosin light chain kinase (Homo sapiens) (UniProt Q32MK0)"}, "[8]": {"target": "Calcium/calmodulin-dependent protein kinase type 1 (Homo sapiens) (UniProt Q14012)", "sequence (Q14012 whole entry, looked up)": "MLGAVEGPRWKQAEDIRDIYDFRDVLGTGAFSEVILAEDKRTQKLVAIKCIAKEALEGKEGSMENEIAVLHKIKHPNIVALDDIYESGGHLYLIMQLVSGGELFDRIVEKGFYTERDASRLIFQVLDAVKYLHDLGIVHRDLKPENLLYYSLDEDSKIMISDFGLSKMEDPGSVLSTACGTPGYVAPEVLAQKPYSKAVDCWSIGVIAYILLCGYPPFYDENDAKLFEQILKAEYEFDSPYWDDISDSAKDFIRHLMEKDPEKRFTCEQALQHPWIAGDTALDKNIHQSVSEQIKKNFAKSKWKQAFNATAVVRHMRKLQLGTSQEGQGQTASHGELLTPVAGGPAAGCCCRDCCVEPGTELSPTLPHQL"}, "[9]": {"target": "Tyrosine-protein kinase ABL2 (Homo sapiens) (UniProt P42684)"}, "[10]": {"target": "Non-receptor tyrosine-protein kinase TNK1 (Homo sapiens) (UniProt Q13470)"}, "[11]": {"target": "Serine/threonine-protein kinase ULK3 (Homo sapiens) (UniProt Q6PHR2)"}, "[12]": {"target": "Serine/threonine-protein kinase PLK2 (Homo sapiens) (UniProt Q9NYY3)"}, "[13]": {"test_system": "Tyrosine-protein kinase ABL1 (Homo sapiens), P00519 [Q252H]"}, "[14]": {"test_system": "Receptor-type tyrosine-protein kinase FLT3 (Homo sapiens), P36888 [N841I]"}, "[15]": {"test_system": "Mast/stem cell growth factor receptor Kit (Homo sapiens), P10721 [V559D]"}, "[16]": {"target": "Dual specificity protein kinase CLK1 (Homo sapiens) (UniProt P49759)", "sequence (P49759 whole entry, looked up)": "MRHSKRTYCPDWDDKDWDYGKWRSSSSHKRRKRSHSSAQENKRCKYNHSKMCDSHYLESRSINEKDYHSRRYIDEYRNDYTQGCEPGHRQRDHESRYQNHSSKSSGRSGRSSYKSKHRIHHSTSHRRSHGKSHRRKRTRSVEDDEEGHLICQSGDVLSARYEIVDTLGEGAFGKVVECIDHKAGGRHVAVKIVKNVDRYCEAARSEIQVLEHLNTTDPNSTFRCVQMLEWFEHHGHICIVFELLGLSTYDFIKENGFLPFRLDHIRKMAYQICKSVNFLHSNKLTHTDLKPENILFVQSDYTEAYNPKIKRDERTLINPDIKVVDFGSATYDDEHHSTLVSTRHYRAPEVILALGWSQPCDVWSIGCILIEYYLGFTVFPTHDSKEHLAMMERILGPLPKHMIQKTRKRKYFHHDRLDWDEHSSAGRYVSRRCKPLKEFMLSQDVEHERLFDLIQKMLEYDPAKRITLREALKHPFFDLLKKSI"}, "[17]": {"target": "T1, Discoidin domain-containing receptor 2 (Homo sapiens, UniProt Q16832)", "T1 sequence (Q16832 whole entry)": "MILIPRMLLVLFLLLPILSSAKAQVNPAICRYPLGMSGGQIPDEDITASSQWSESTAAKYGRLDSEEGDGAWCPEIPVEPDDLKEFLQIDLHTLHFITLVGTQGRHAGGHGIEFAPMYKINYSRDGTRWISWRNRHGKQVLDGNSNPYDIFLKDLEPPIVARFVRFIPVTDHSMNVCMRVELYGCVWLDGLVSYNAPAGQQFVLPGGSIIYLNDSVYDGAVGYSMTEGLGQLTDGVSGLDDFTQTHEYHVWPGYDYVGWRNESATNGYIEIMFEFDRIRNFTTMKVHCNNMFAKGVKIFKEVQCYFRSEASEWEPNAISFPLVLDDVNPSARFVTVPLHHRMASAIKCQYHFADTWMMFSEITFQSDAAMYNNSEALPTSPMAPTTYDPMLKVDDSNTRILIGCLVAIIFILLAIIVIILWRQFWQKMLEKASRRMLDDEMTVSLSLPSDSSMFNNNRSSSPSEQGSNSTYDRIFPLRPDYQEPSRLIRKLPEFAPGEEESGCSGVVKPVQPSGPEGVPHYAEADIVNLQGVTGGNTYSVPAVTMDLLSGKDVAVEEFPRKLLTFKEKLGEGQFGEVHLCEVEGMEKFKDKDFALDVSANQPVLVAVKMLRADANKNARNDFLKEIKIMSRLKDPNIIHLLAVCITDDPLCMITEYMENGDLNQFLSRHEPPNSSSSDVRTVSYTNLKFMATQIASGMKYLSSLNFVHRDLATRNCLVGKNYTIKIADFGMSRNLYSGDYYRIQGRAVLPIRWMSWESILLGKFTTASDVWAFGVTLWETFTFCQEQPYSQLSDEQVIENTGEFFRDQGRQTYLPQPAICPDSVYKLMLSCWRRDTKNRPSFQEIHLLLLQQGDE", "assay": "NanoBRET assay (SGC Frankfurt) with DDR2"}, "[18]": {"target": "Beta-1 adrenergic receptor (Homo sapiens) (UniProt P08588)", "settings": "Compound concentration 10.0 uM"}, "[19]": {"target": "Alpha-1B adrenergic receptor (Homo sapiens) (UniProt P35368)", "settings": "Compound concentration 10.0 uM"}, "[20]": {"target": "Cyclin-dependent kinase 7 (Homo sapiens) (UniProt P50613)"}, "[21]": {"target": "Vascular endothelial growth factor receptor 2 (Homo sapiens, UniProt P35968)"}, "[22]": {"target": "Tyrosine-protein kinase JAK3 (Homo sapiens) (UniProt P52333)"}, "[23]": {"target": "Mitogen-activated protein kinase kinase kinase 11 (Homo sapiens) (UniProt Q16584)"}, "[24]": {"test_system": "Epidermal growth factor receptor (Homo sapiens), P00533 [UNDEFINED MUTATION]"}, "[25]": {"target": "Serine/threonine-protein kinase WNK3 (Homo sapiens) (UniProt Q9BYP7)"}, "[26]": {"target": "Alpha-2A adrenergic receptor (Homo sapiens) (UniProt P08913)", "settings": "Compound concentration 10.0 uM"}, "[27]": {"test_system": "Mast/stem cell growth factor receptor Kit (Homo sapiens), P10721 [D816V]"}, "[28]": {"test_system": "Epidermal growth factor receptor (Homo sapiens), P00533 [G719S]"}, "[29]": {"target": "Protein kinase C eta type (Homo sapiens) (UniProt P24723)"}, "[30]": {"target": "Activin receptor type-1-like (Homo sapiens) (UniProt P37023)"}, "[31]": {"target": "Mitogen-activated protein kinase 10 (Homo sapiens) (UniProt P53779)", "sequence (P53779 whole entry)": "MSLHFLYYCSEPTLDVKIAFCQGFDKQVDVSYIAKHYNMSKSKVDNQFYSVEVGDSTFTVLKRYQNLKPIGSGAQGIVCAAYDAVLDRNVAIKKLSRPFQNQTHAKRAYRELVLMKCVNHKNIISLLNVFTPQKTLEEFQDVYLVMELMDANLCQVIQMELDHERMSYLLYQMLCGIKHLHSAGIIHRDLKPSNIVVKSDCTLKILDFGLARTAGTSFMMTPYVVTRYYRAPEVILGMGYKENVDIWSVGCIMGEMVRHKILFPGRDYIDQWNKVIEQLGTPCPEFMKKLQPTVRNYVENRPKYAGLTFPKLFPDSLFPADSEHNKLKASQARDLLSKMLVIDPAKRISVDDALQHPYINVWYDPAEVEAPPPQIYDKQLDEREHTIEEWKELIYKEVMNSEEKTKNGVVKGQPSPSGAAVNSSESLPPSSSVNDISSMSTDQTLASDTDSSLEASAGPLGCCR"}, "[32]": {"target": "Cyclin-dependent kinase 17 (Homo sapiens) (UniProt Q00537)"}, "[33]": {"target": "Muscarinic acetylcholine receptor M4 (Homo sapiens) (UniProt P08173)", "settings": "Compound concentration 10.0 uM"}, "[34]": {"target": "Activated CDC42 kinase 1 (Homo sapiens) (UniProt Q07912)"}, "[35]": {"settings": "Compound concentration 1000.0 nM"}, "[36]": {"settings": "Compound concentration 100.0 nM"}}, "note": "Active and inactive are the calls of the source. No cut-off for these calls is given here."}
{"smiles": "Cc1cc(NC(=O)c2cccc(S(F)(F)(F)(F)F)c2)cc(-n2ccn3nc(-c4cccnc4)cc23)c1", "note": "[BAY-309]", "values": [{"measurement": "residual activity", "setting": "[1]; [35]", "result": 100, "unit": "%"}, {"measurement": "residual activity", "setting": "[2]; [35]", "result": 49.7, "unit": "%"}, {"measurement": "residual activity", "setting": "[3]; [35]", "result": 91.2, "unit": "%"}, {"measurement": "residual activity", "setting": "[4]; [35]", "result": 82.1, "unit": "%"}, {"measurement": "residual activity", "setting": "[5]; [35]", "result": 83.8, "unit": "%"}, {"measurement": "residual activity", "setting": "[6]; [35]", "result": 81.3, "unit": "%"}, {"measurement": "residual activity", "setting": "[7]; [35]", "result": 100, "unit": "%"}, {"measurement": "residual activity", "setting": "[8]; [35]", "result": 77.9, "unit": "%"}, {"measurement": "residual activity", "setting": "[9]; [35]", "result": 100, "unit": "%"}, {"measurement": "residual activity", "setting": "[10]; [35]", "result": 95, "unit": "%"}, {"measurement": "residual activity", "setting": "[11]; [35]", "result": 75.2, "unit": "%"}, {"measurement": "residual activity", "setting": "[12]; [35]", "result": 100, "unit": "%"}, {"measurement": "residual activity", "setting": "[13]; [35]", "result": 100, "unit": "%"}, {"measurement": "residual activity", "setting": "[14]; [35]", "result": 100, "unit": "%"}, {"measurement": "residual activity", "setting": "[15]; [35]", "result": 73.5, "unit": "%"}, {"measurement": "residual activity", "setting": "[16]; [35]", "result": 100, "unit": "%"}, {"measurement": "EC50", "setting": "[17]", "result": "2700 nM (not active)"}, {"measurement": "IC50", "setting": "[17]", "result": "9300 nM (not active)"}, {"measurement": "inhibition", "setting": "[18]", "result": -7.94, "unit": "%"}, {"measurement": "inhibition", "setting": "[19]", "result": -8.99, "unit": "%"}, {"measurement": "residual activity", "setting": "[20]; [35]", "result": 100, "unit": "%"}, {"measurement": "residual activity", "setting": "[21]; [35]", "result": 68.3, "unit": "%"}, {"measurement": "residual activity", "setting": "[22]; [35]", "result": 96.9, "unit": "%"}, {"measurement": "residual activity", "setting": "[23]; [35]", "result": 100, "unit": "%"}, {"measurement": "residual activity", "setting": "[24]; [35]", "result": 100, "unit": "%"}, {"measurement": "residual activity", "setting": "[25]; [35]", "result": 100, "unit": "%"}, {"measurement": "inhibition", "setting": "[26]", "result": 15.8, "unit": "%"}, {"measurement": "residual activity", "setting": "[27]; [35]", "result": 100, "unit": "%"}, {"measurement": "residual activity", "setting": "[28]; [35]", "result": 100, "unit": "%"}, {"measurement": "residual activity", "setting": "[29]; [35]", "result": 100, "unit": "%"}, {"measurement": "residual activity", "setting": "[30]; [35]", "result": 100, "unit": "%"}, {"measurement": "residual activity", "setting": "[31]; [35]", "result": 64.9, "unit": "%"}, {"measurement": "residual activity", "setting": "[32]; [35]", "result": 83.8, "unit": "%"}, {"measurement": "inhibition", "setting": "[33]", "result": 14.6, "unit": "%"}, {"measurement": "residual activity", "setting": "[34]; [35]", "result": 100, "unit": "%"}]}
{"smiles": "Cc1cc(C)c(-n2ccn3nc(-c4cccnc4)cc23)cc1NC(=O)c1cc(C#N)cc(S(F)(F)(F)(F)F)c1", "note": "[BAY-826]", "values": [{"measurement": "residual activity", "setting": "[1]; [36]", "result": 71.4, "unit": "%"}, {"measurement": "residual activity", "setting": "[2]; [36]", "result": 62.8, "unit": "%"}, {"measurement": "residual activity", "setting": "[3]; [36]", "result": 92, "unit": "%"}, {"measurement": "residual activity", "setting": "[4]; [36]", "result": 100, "unit": "%"}, {"measurement": "residual activity", "setting": "[5]; [36]", "result": 100, "unit": "%"}, {"measurement": "residual activity", "setting": "[6]; [36]", "result": 73.9, "unit": "%"}, {"measurement": "residual activity", "setting": "[7]; [36]", "result": 100, "unit": "%"}, {"measurement": "residual activity", "setting": "[8]; [36]", "result": 60.4, "unit": "%"}, {"measurement": "residual activity", "setting": "[9]; [36]", "result": 67.8, "unit": "%"}, {"measurement": "residual activity", "setting": "[10]; [36]", "result": 87.6, "unit": "%"}, {"measurement": "residual activity", "setting": "[11]; [36]", "result": 100, "unit": "%"}, {"measurement": "residual activity", "setting": "[12]; [36]", "result": 83.3, "unit": "%"}, {"measurement": "residual activity", "setting": "[13]; [36]", "result": 72.9, "unit": "%"}, {"measurement": "residual activity", "setting": "[14]; [36]", "result": 95.3, "unit": "%"}, {"measurement": "residual activity", "setting": "[15]; [36]", "result": 45.6, "unit": "%"}, {"measurement": "residual activity", "setting": "[16]; [36]", "result": 96.2, "unit": "%"}, {"measurement": "EC50", "setting": "[17]", "result": "0.54 nM (active)"}, {"measurement": "IC50", "setting": "[17]", "result": "3 nM (active)"}, {"measurement": "inhibition", "setting": "[18]", "result": 9.41, "unit": "%"}, {"measurement": "inhibition", "setting": "[19]", "result": -0.87, "unit": "%"}, {"measurement": "residual activity", "setting": "[20]; [36]", "result": 70.1, "unit": "%"}, {"measurement": "residual activity", "setting": "[21]; [36]", "result": 76.2, "unit": "%"}, {"measurement": "residual activity", "setting": "[22]; [36]", "result": 95.3, "unit": "%"}, {"measurement": "residual activity", "setting": "[23]; [36]", "result": 100, "unit": "%"}, {"measurement": "residual activity", "setting": "[24]; [36]", "result": 91.6, "unit": "%"}, {"measurement": "residual activity", "setting": "[25]; [36]", "result": 61.9, "unit": "%"}, {"measurement": "inhibition", "setting": "[26]", "result": 11.1, "unit": "%"}, {"measurement": "residual activity", "setting": "[27]; [36]", "result": 98.8, "unit": "%"}, {"measurement": "residual activity", "setting": "[28]; [36]", "result": 94.8, "unit": "%"}, {"measurement": "residual activity", "setting": "[29]; [36]", "result": 99.5, "unit": "%"}, {"measurement": "residual activity", "setting": "[30]; [36]", "result": 78.9, "unit": "%"}, {"measurement": "residual activity", "setting": "[31]; [36]", "result": 100, "unit": "%"}, {"measurement": "residual activity", "setting": "[32]; [36]", "result": 99.3, "unit": "%"}, {"measurement": "inhibition", "setting": "[33]", "result": 14.9, "unit": "%"}, {"measurement": "residual activity", "setting": "[34]; [36]", "result": 83.6, "unit": "%"}]}
